In this assay the test system is episomal HPV16 DNA in W12-20850 cells. The assay can be described thus: W-12 cellular assay (episomal HPV-16 DNA, hybrid capture). As to conditions: Human papillomavirus 16, 96 h, four days incubation, episomal HPV-16 DNA quantified by hybrid capture, inhibition relative to untreated control cells. The class given is cell-based, HPV16 (human papillomavirus). The procedure: Compounds of the current invention are believed useful in the treatment and/or prophylaxis of conditions and diseases associated with HPV infection. Activity mediated through HPV was determined using the following W-12 cellular assay.
The W12 cell line used contains HPV16 DNA and was derived from a low-grade cervical dysplasia tissue by Margaret Stanley and subsequently clonally selected by Paul Lambert (University of Wisconsin). One of these clones, W12-20850, contains 1000 copies of episomal HPV16 DNA and was used in the cell-based assay. W12-20850 cells were routinely cultured with a gamma-irradiated (6000 rads) feeder layer of 3T3 cells. Assays, however, were run in the absence of a 3T3 feeder layer. W12-20850 and 3T3 cells were routinely split when they were sub-confluent. W12-20850 were grown in W12 Medium which is constituted of 25% DMEM (Gibco BRL, Cat # 12430-047), 75% F12 Media (Gibco BRL, Cat # 11765-021) and 2.5% FBS. The additives include […] Adenine (Sigma, Cat # A-9795), 0.4 mg/ml Hydrocortisone (Calbiochem, Cat # 386698), […] Bovine Insulin (Sigma, Cat # I-1882), 8.4 ng/ml cholera toxin (Fluka, Cat # 26694) and 10 ng/ml EGF (Invitrogen, Cat # 13247-051). 3T3 cells were grown in DMEM containing 10% FBS. Cell lines were incubated at 37° C., in the presence of 5% CO2.
For the assay, W12-20850 cells were seeded into a 96 well plate-containing compound. Plates were incubated at 37° C. in the presence of 5% CO2, for four days. On the fourth day, cells were lysed and the amount of episomal HPV-16 DNA was quantified using a non-radioactive hybrid capture technique with HPV-16 specific capture and detection probes. The percent inhibition relative to untreated control cells was then determined.
The hybrid capture assay is run in a 96 well plate format. Hybridization plates (Nunc Maxisorb Cat # 450320) were coated with a mixture of capture probe and ReactiBind solution for at least 4 hours and then washed with 0.2)(SSC, 0.05% Tween20 (SSCT) prior to blocking with 150 μl/well of 0.2 N NaOH, 1% Igepal, 10 mg/ml hsDNA for 6-8 hours. The hybridization was carried out by mixing 271 μl of lysed cells with 45 μl of denatured detection probe in 6M guanidine isothiocyanate. To prevent evaporation, 50 μl of mineral oil was added to each well. The plate was then heated to 90° C. for 6.5 minutes and the hybridization continued at 42° C. overnight. Assay plates were washed 6 times with SSC/T. Anti-digoxigenin HRP-conjugated Ab (Boehringer Mannheim 1207733, 1:5000) was incubated in the wells for 30 min at room temperature and washed with PBS/0.05% Tween-20. SuperSignal LBA substrate (Pierce Cat # 37070) was added, and chemiluminescence was measured using Wallac 1420 Victor plate reader.
Regarding `O=C(NC1CCCc2c1[nH]c1ccc(Br)cc21)c1ccncc1` (stereo not drawn) [Example 41, N-(6-Bromo-2,3,4,9-tetrahydro-1H-carbazol-1-yl)isonicotinamide], the IC50 was determined as 180 nM.
For the molecule `O=C(Nc1ccccc1)NC1CCCc2c1[nH]c1ccccc21` (stereo not drawn) [Example 42, N-Phenyl-N′-(2,3,4,9-tetrahydro-1H-carbazol-1-yl)urea], the IC50 is > 10000 nM.
With `Cc1ccc2[nH]c3c(c2c1)CCCC3NC(=O)Nc1ccccc1` (stereo not drawn) [Example 43, N-(6-Methyl-2,3,4,9-tetrahydro-1H-carbazol-1-yl)-N′-phenylurea], the IC50 is > 10000 nM.
As for `O=C(Nc1ccccc1)NC1CCCc2c1[nH]c1ccc(Cl)cc21` (stereo not drawn) [Example 44, N-(6-Chloro-2,3,4,9-tetrahydro-1H-carbazol-1-yl)-N′-phenylurea], half-maximal inhibition (IC50) required 1700 nM.
The result for `O=C(NC1CCCc2c1[nH]c1ccc(Cl)cc21)c1ccccn1` (stereo not drawn) [Example 45A, N-(6-Chloro-2,3,4,9-tetrahydro-1H-carbazol-1-yl)-2-pyridinecarboxamide] reads 10 nM.
On to `O=C(N[C@@H]1CCCc2c1[nH]c1ccc(Cl)cc21)c1ccccn1` [Example 45B, N-[(1R)-6-chloro-2,3,4,9-tetrahydro-1H-carbazol-1-yl]pyridine-2-carboxamide], for which inhibition was half-maximal at 5 nM (IC50).
`O=C(N[C@H]1CCCc2c1[nH]c1ccc(Cl)cc21)c1ccccn1` [Example 45C, N-[(1S)-6-chloro-2,3,4,9-tetrahydro-1H-carbazol-1-yl]pyridine-2-carboxamide] had a concentration for half-maximal inhibition (IC50) of 6000 nM.
`O=C(NC1CCCc2c1[nH]c1ccc(Cl)cc21)c1ccccc1F` (stereo not drawn) [Example 46A, N-(6-Chloro-2,3,4,9-tetrahydro-1H-carbazol-1-yl)-2-fluorobenzamide] returned an IC50 of 12 nM.
Take `O=C(N[C@@H]1CCCc2c1[nH]c1ccc(Cl)cc21)c1ccccc1F` [Example 46B, N-[(1R)-6-chloro-2,3,4,9-tetrahydro-1H-carbazol-1-yl]-2-fluorobenzamide]: the IC50 amounted to 7 nM.
On to `O=C(N[C@H]1CCCc2c1[nH]c1ccc(Cl)cc21)c1ccccc1F` [Example 46C, N-[(1S)-6-chloro-2,3,4,9-tetrahydro-1H-carbazol-1-yl]-2-fluorobenzamide], for which the concentration for half-maximal inhibition (IC50) was > 3000 nM.
Molecule `Cn1cncc1C(=O)NC1CCCc2c1[nH]c1ccc(Cl)cc21` (stereo not drawn) [Example 47, N-(6-Chloro-2,3,4,9-tetrahydro-1H-carbazol-1-yl)-1-methyl-1H-imidazole-5-carboxamide] gave an IC50 of 810 nM.
Turning to `Cn1nccc1C(=O)NC1CCCc2c1[nH]c1ccc(Cl)cc21` (stereo not drawn) [Example 48, N-(6-Chloro-2,3,4,9-tetrahydro-1H-carbazol-1-yl)-1-methyl-1H-pyrazole-5-carboxamide], the IC50 was 2240 nM.
`Cn1ccc(C(=O)NC2CCCc3c2[nH]c2ccc(Cl)cc32)n1` (stereo not drawn) [Example 49, N-(6-Chloro-2,3,4,9-tetrahydro-1H-carbazol-1-yl)-1-methyl-1H-pyrazole-3-carboxamide] yielded an IC50 of 1650 nM.
The result for `O=C(NC1CCCc2c1[nH]c1ccc(Cl)cc21)c1c[nH]cn1` (stereo not drawn) [Example 50, N-(6-Chloro-2,3,4,9-tetrahydro-1H-carbazol-1-yl)-1H-imidazole-4-carboxamide] reads 440 nM.
`O=C(NC1CCCc2c1[nH]c1ccc(Cl)cc21)c1cc[nH]n1` (stereo not drawn) [Example 51, N-(6-Chloro-2,3,4,9-tetrahydro-1H-carbazol-1-yl)-1H-pyrazole-3-carboxamide]: the 50% inhibitory concentration (IC50) was 73 nM.
With `O=C(NC1CCCc2c1[nH]c1ccc(Br)cc21)c1c(F)cccc1F` (stereo not drawn) [Example 52, N-(6-bromo-2,3,4,9-tetrahydro-1H-carbazol-1-yl)-2,6-difluorobenzamide], the IC50 amounted to 45 nM.
Take `O=S(=O)(NC1CCCc2c1[nH]c1ccc(Br)cc21)c1ccccc1F` (stereo not drawn) [Example 53, N-(6-bromo-2,3,4,9-tetrahydro-1H-carbazol-1-yl)-2-fluorobenzenesulfonamide]: the IC50 amounted to 51 nM.
`O=S(=O)(NC1CCCc2c1[nH]c1ccc(Br)cc21)c1c(F)cccc1F` (stereo not drawn) [Example 54, N-(6-bromo-2,3,4,9-tetrahydro-1H-carbazol-1-yl)-2,6-difluorobenzenesulfonamide] had an IC50 of 94 nM.

Broadly, the IC50 is the point on the concentration scale where inhibition reaches its midpoint.
